Data taken from PubChem BioAssay (NCI).
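Each compound was tested at five concentrations against cells in 96-well plates for 48 hours. Here, GI50 denotes the concentration required for 50% inhibition of growth. TGI: concentration producing complete growth inhibition.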

What was measured:
Assay in all cases: DTP human tumour cell line panel, 48 h; in the data active = GI50 below about 0.43 µM; inactive = the rest
A549 NSCLC = system: A549 NSCLC
SK-MEL-5 melanoma = system: SK-MEL-5 melanoma
MOLT-4 leukemia = system: MOLT-4 leukemia
OVCAR-3 ovarian = system: OVCAR-3 ovarian
SNB-75 CNS = system: SNB-75 CNS
UACC-62 melanoma = system: UACC-62 melanoma
NCI-H460 lung = system: NCI-H460 lung
IGROV1 ovarian = system: IGROV1 ovarian
SK-MEL-28 melanoma = system: SK-MEL-28 melanoma
T-47D breast = system: T-47D breast
ACHN renal = system: ACHN renal
SW-620 colon = system: SW-620 colon
TK-10 renal = system: TK-10 renal
RPMI-8226 leukemia = system: RPMI-8226 leukemia
786-0 renal = system: 786-0 renal
SF-295 CNS = system: SF-295 CNS
UO-31 renal = system: UO-31 renal
SN12C renal = system: SN12C renal
MCF7 breast = system: MCF7 breast
SK-OV-3 ovarian = system: SK-OV-3 ovarian
U251 CNS = system: U251 CNS
PC-3 prostate = system: PC-3 prostate
HCC-2998 colon = system: HCC-2998 colon
OVCAR-4 ovarian = system: OVCAR-4 ovarian
HOP-62 NSCLC = system: HOP-62 NSCLC
COLO 205 colon = system: COLO 205 colon
MDA-MB-231 breast = system: MDA-MB-231 breast
HS 578T breast = system: HS 578T breast
NCI-H23 lung = system: NCI-H23 lung
HOP-92 NSCLC = system: HOP-92 NSCLC
EKVX NSCLC = system: EKVX NSCLC
MALME-3M melanoma = system: MALME-3M melanoma
HT29 colon = system: HT29 colon
MDA-MB-435 = system: MDA-MB-435
HCT-15 colon = system: HCT-15 colon
OVCAR-8 ovarian = system: OVCAR-8 ovarian
OVCAR-5 ovarian = system: OVCAR-5 ovarian
DU-145 prostate = system: DU-145 prostate
SF-268 CNS = system: SF-268 CNS
M14 melanoma = system: M14 melanoma
CCRF-CEM leukemia = system: CCRF-CEM leukemia
HCT-116 colon = system: HCT-116 colon
SR leukemia = system: SR leukemia
MDA-N = system: MDA-N
SK-MEL-2 melanoma = system: SK-MEL-2 melanoma
KM12 colon = system: KM12 colon
HL-60(TB) leukemia = system: HL-60(TB) leukemia
NCI-H226 lung = system: NCI-H226 lung
LOX IMVI melanoma = system: LOX IMVI melanoma
K-562 leukemia = system: K-562 leukemia
SF-539 CNS = system: SF-539 CNS
NCI/ADR-RES ovarian = system: NCI/ADR-RES ovarian
A498 renal = system: A498 renal
UACC-257 melanoma = system: UACC-257 melanoma
SNB-19 CNS = system: SNB-19 CNS
NCI-H522 lung = system: NCI-H522 lung
CAKI-1 renal = system: CAKI-1 renal
RXF 393 renal = system: RXF 393 renal
BT-549 breast = system: BT-549 breast

c1ccc2c(c1)c1c(n2CCOCCN2CCCCC2)CCCC1
28 µM: TGI (RPMI-8226 leukemia)
26.4 µM: TGI (786-0 renal)
23.6 µM: TGI (HCC-2998 colon)
37.7 µM: TGI (SF-268 CNS)
30.1 µM: TGI (A549 NSCLC)
35.2 µM: TGI (T-47D breast)
25 µM: TGI (HCT-116 colon)
38.5 µM: TGI (NCI-H226 lung)
8.33 µM: TGI (HL-60(TB) leukemia)
26.6 µM: TGI (MDA-MB-435)
27.4 µM: TGI (SN12C renal)
22.2 µM: TGI (PC-3 prostate)
25.3 µM: TGI (OVCAR-4 ovarian)
22.3 µM: TGI (HOP-92 NSCLC)
31.7 µM: TGI (SF-539 CNS)
58 µM: TGI (SK-MEL-28 melanoma)
32.7 µM: TGI (U251 CNS)
27.6 µM: TGI (MCF7 breast)
28.3 µM: TGI (LOX IMVI melanoma)
21.7 µM: TGI (OVCAR-3 ovarian)
32.1 µM: TGI (HS 578T breast)
37.4 µM: TGI (NCI-H23 lung)
26 µM: TGI (COLO 205 colon)
29.7 µM: TGI (SF-295 CNS)
28.2 µM: TGI (NCI-H460 lung)
28.1 µM: TGI (IGROV1 ovarian)
35.7 µM: TGI (SW-620 colon)
28.4 µM: TGI (OVCAR-8 ovarian)
27.3 µM: TGI (TK-10 renal)
34.9 µM: TGI (SK-OV-3 ovarian)
32.8 µM: TGI (EKVX NSCLC)
23.4 µM: TGI (NCI/ADR-RES ovarian)
32.6 µM: TGI (DU-145 prostate)
36 µM: TGI (SR leukemia)
26.7 µM: TGI (MOLT-4 leukemia) | TGI (SNB-75 CNS) | TGI (MALME-3M melanoma) | TGI (KM12 colon) | TGI (K-562 leukemia)
25.7 µM: TGI (OVCAR-5 ovarian) | TGI (M14 melanoma)
28.7 µM: TGI (UACC-62 melanoma) | TGI (MDA-N)
29 µM: TGI (HOP-62 NSCLC)
24.6 µM: TGI (UO-31 renal) | TGI (HT29 colon)
21.1 µM: TGI (SK-MEL-5 melanoma) | TGI (SK-MEL-2 melanoma)
24.4 µM: TGI (MDA-MB-231 breast)
27.7 µM: TGI (ACHN renal) | TGI (HCT-15 colon)
29.6 µM: TGI (CCRF-CEM leukemia)

C=CCOc1ccc(C2c3c([nH][nH]c3=O)CC(O)(OCC)C2C(=O)OCC)cc1OC (stereo not given)
> 100 µM: TGI (A549 NSCLC) | TGI (SK-MEL-5 melanoma) | TGI (MOLT-4 leukemia) | TGI (OVCAR-3 ovarian) | TGI (SNB-75 CNS) | TGI (A498 renal) | TGI (NCI-H460 lung) | TGI (IGROV1 ovarian) | TGI (SK-MEL-28 melanoma) | TGI (T-47D breast) | TGI (ACHN renal) | TGI (UACC-257 melanoma) | TGI (SW-620 colon) | TGI (TK-10 renal) | TGI (RPMI-8226 leukemia) | TGI (786-0 renal) | TGI (SF-295 CNS) | TGI (UO-31 renal) | TGI (SN12C renal) | TGI (MCF7 breast) | TGI (U251 CNS) | TGI (PC-3 prostate) | TGI (HCC-2998 colon) | TGI (OVCAR-4 ovarian) | TGI (HOP-62 NSCLC) | TGI (COLO 205 colon) | TGI (MDA-MB-231 breast) | TGI (HS 578T breast) | TGI (NCI-H23 lung) | TGI (HOP-92 NSCLC) | TGI (EKVX NSCLC) | TGI (MALME-3M melanoma) | TGI (HT29 colon) | TGI (MDA-MB-435) | TGI (HCT-15 colon) | TGI (OVCAR-8 ovarian) | TGI (OVCAR-5 ovarian) | TGI (DU-145 prostate) | TGI (SF-268 CNS) | TGI (M14 melanoma) | TGI (CCRF-CEM leukemia) | TGI (HCT-116 colon) | TGI (MDA-N) | TGI (SK-MEL-2 melanoma) | TGI (SNB-19 CNS) | TGI (NCI-H522 lung) | TGI (CAKI-1 renal) | TGI (KM12 colon) | TGI (HL-60(TB) leukemia) | TGI (LOX IMVI melanoma) | TGI (SF-539 CNS) | TGI (NCI/ADR-RES ovarian)

CCN1CCC(C(=O)Nc2n[nH]c3nnc(-c4cccc(F)c4F)cc23)CC1
> 17 µM: TGI (NCI-H522 lung)
11.9 µM: TGI (NCI-H226 lung)
5.78 µM: TGI (RXF 393 renal)
> 14.2 µM: TGI (OVCAR-3 ovarian)
> 23.1 µM: TGI (HS 578T breast)
active: GI50 (RXF 393 renal) 0.403 µM
23.4 µM: TGI (SK-OV-3 ovarian)
inactive: GI50 (A549 NSCLC) 10.5 µM | GI50 (SK-MEL-5 melanoma) 1.62 µM | GI50 (MOLT-4 leukemia) 12.1 µM | GI50 (OVCAR-3 ovarian) 2.78 µM | GI50 (SNB-75 CNS) 0.821 µM | GI50 (UACC-62 melanoma) 10.2 µM | GI50 (A498 renal) 0.543 µM | GI50 (NCI-H460 lung) 7.96 µM | GI50 (IGROV1 ovarian) > 21.4 µM | GI50 (SK-MEL-28 melanoma) 8.35 µM | GI50 (T-47D breast) 4.42 µM | GI50 (ACHN renal) 9.68 µM | GI50 (UACC-257 melanoma) 11.9 µM | GI50 (SW-620 colon) 10.4 µM | GI50 (TK-10 renal) 11.3 µM | GI50 (RPMI-8226 leukemia) > 25 µM | GI50 (786-0 renal) 6.32 µM | GI50 (SF-295 CNS) 5.73 µM | GI50 (UO-31 renal) > 25 µM | GI50 (SN12C renal) 9.49 µM | GI50 (MCF7 breast) 2.2 µM | GI50 (SK-OV-3 ovarian) 2.33 µM | GI50 (U251 CNS) 6.17 µM | GI50 (BT-549 breast) 12.2 µM | GI50 (PC-3 prostate) 10.1 µM | GI50 (HCC-2998 colon) 16 µM | GI50 (OVCAR-4 ovarian) 7.04 µM | GI50 (HOP-62 NSCLC) 7.62 µM | GI50 (COLO 205 colon) 4.61 µM | GI50 (MDA-MB-231 breast) 5.51 µM | GI50 (HS 578T breast) 3.68 µM | GI50 (NCI-H23 lung) 16.5 µM | GI50 (HOP-92 NSCLC) 8.03 µM | GI50 (EKVX NSCLC) 16.9 µM | GI50 (MALME-3M melanoma) > 22.6 µM | GI50 (HT29 colon) 5.02 µM | GI50 (MDA-MB-435) 10.5 µM | GI50 (HCT-15 colon) > 25 µM | GI50 (OVCAR-8 ovarian) 9.46 µM | GI50 (OVCAR-5 ovarian) 13.9 µM | GI50 (DU-145 prostate) 10.3 µM | GI50 (SF-268 CNS) 9.08 µM | GI50 (M14 melanoma) 11.4 µM | GI50 (CCRF-CEM leukemia) 6.75 µM | GI50 (HCT-116 colon) 7.36 µM | GI50 (SR leukemia) 9.61 µM | GI50 (SK-MEL-2 melanoma) 4.84 µM | GI50 (SNB-19 CNS) 12 µM | GI50 (NCI-H522 lung) 6.68 µM | GI50 (CAKI-1 renal) > 25 µM | GI50 (KM12 colon) 6.1 µM | GI50 (HL-60(TB) leukemia) 8.16 µM | GI50 (NCI-H226 lung) 3.41 µM | GI50 (LOX IMVI melanoma) 5.59 µM | GI50 (K-562 leukemia) 8.39 µM | GI50 (SF-539 CNS) 3.98 µM | GI50 (NCI/ADR-RES ovarian) > 25 µM
> 12.8 µM: TGI (MCF7 breast)
> 20.1 µM: TGI (T-47D breast)
7.46 µM: TGI (SK-MEL-5 melanoma)
> 19.3 µM: TGI (SNB-75 CNS) | TGI (HOP-62 NSCLC)
20.3 µM: TGI (MDA-MB-231 breast)
9.17 µM: TGI (COLO 205 colon)
24.6 µM: TGI (DU-145 prostate)
14.2 µM: TGI (SK-MEL-2 melanoma)
> 18.4 µM: TGI (SK-MEL-28 melanoma)
22 µM: TGI (OVCAR-4 ovarian)
> 18.2 µM: TGI (KM12 colon)
> 25 µM: TGI (A549 NSCLC) | TGI (MOLT-4 leukemia) | TGI (UACC-62 melanoma) | TGI (NCI-H460 lung) | TGI (IGROV1 ovarian) | TGI (ACHN renal) | TGI (UACC-257 melanoma) | TGI (SW-620 colon) | TGI (TK-10 renal) | TGI (RPMI-8226 leukemia) | TGI (786-0 renal) | TGI (SF-295 CNS) | TGI (UO-31 renal) | TGI (SN12C renal) | TGI (U251 CNS) | TGI (BT-549 breast) | TGI (PC-3 prostate) | TGI (HCC-2998 colon) | TGI (NCI-H23 lung) | TGI (EKVX NSCLC) | TGI (MALME-3M melanoma) | TGI (HT29 colon) | TGI (MDA-MB-435) | TGI (HCT-15 colon) | TGI (OVCAR-8 ovarian) | TGI (OVCAR-5 ovarian) | TGI (SF-268 CNS) | TGI (M14 melanoma) | TGI (CCRF-CEM leukemia) | TGI (HCT-116 colon) | TGI (SR leukemia) | TGI (SNB-19 CNS) | TGI (CAKI-1 renal) | TGI (LOX IMVI melanoma) | TGI (K-562 leukemia) | TGI (NCI/ADR-RES ovarian)
> 6.6 µM: TGI (A498 renal)
18.3 µM: TGI (SF-539 CNS)
19.5 µM: TGI (HL-60(TB) leukemia)
> 23.9 µM: TGI (HOP-92 NSCLC)
